Experiments:
α-β-Tubulin = α-β-Tubulin polymerization assay; assay type: biochemical; set-up: key: a compound showing 0 to 50% inhibition at 20 μM is reported as score 1; Score 2 compounds are defined as compound showing more than 50% inhibition at 20 μM and less than 50% inhibition at 5 μM; a compound showing more than 50% inhibition at 5 μM is reported as score 3; details: inhibition of polymerization at 20 μM and 5 μM, reported as score
Experimental: The tubulin polymerization assay is an adaptation of an assay originally described by Bonne, D. et al. (J. Biol. Chem., 1985, 260:2819-25). The assay kit was purchased from Cytoskeleton, Inc. (catalogue number BK011) and the assay was performed as described by the supplier with the following modifications. The assay was run in a 384-well black Proxiplate (Perkin Elmer) and volumes were adapted accordingly. The reactions were carried out in a final volume of 10 μl. Compounds were added to 25 μl of the reaction mix in 96-well PP plates (Corning) on ice and 10 μl of this mixture was dispensed into duplicates of the 384-well Proxiplates pre-warmed to 37° C. in a Fluoroskan Ascent plate reader (Thermo Scientific). Fluorescence measurements were taken every minute for one hour. The maximum slope of each well was determined (linear regression through 4 consecutive points) and polymerization was calculated as a percentage of polymerization observed in the absence of compound. Compounds were first measured at a concentration of 20 μM and then at 5 μM for those showing more than 50% inhibition at 20 μM as compared to the polymerization observed in the absence of compound. Results are reported in Table F-2 as scores defined as: a compound showing 0 to 50% inhibition at 20 μM is reported as score 1; a compound showing more than 50% inhibition at 5 μM is reported as score 3.

[1] = system: human prostate cancer PC3 cells; assay: Eb1 cellular assay (Eb1 Comet assay); assay type: cell-based; details: 1 hour treatment, LAC = concentration where Eb1 foci absent in at least 50% of treated cells
Experimental: The Eb1 Comet assay relies on the detection of the Eb1 protein at the plus end of polymerizing microtubules (Mimori-Kiyosue, 2000) using indirect immunofluorescence. Disruption of microtubule dynamics through de-polymerization or stabilization results in a de-localization of Eb1 from the growing microtubule ends and this is visualized by the disappearance of Eb1 containing cytoplasmic foci.
Briefly, human prostate cancer PC3 cells obtained from the American Type Culture Collection were grown in 96-well plates (Greiner, cat. no. 655090) in HAM's F12 medium as recommended by the provider (ATCC). The cells were treated for 1 hour at 37° C. with compounds dissolved in DMSO (0.6% final DMSO concentration). The culture medium was then removed by aspiration and the cells were fixed by adding cold methanol (−20° C.). After a 15 minutes incubation at −20° C., the cells were washed twice with DPBS (Gibco) containing 0.5% Triton X-100. Mouse Eb1 antibody (BD Transduction Laboratories, cat. no. 610534) was added to the cells (1/250 dilution in DPBS containing 1% BSA) and incubated overnight at room temperature. The antibody was subsequently removed and the cells washed twice with DPBS, 0.5% Triton X-100. Secondary goat anti-mouse antibody conjugated to Alexa 488 fluorescent dye (Molecular Probes) was added at a 1/500 dilution in DPBS, 1% BSA and incubated for 1 hour at 37° C. The cells were washed twice with DPBS, 0.5% Triton X-100 and then DPBS containing 0.5% Triton X-100 and 1/5000 Hoechst 33342 (Molecular Probes) was added. Microscopy based Eb1 foci visualization was carried out using an IN Cell Analyser 1000 (Amersham Biosciences) using a 20× objective. Compound dependent microtubule disruption was visually determined by the disappearance in Eb1 foci. The lowest active concentration (LAC) was determined as the concentration where Eb1 foci were absent in at least 50% of the treated cells. Herein the effects of test compounds are expressed as pLAC (the negative log value of the LAC-value) (see Table 3).

[2] = system: Human prostate cancer PC-3 cells; assay: Anti-proliferative effect, Alamar Blue assay, PC-3; assay type: cell-based; set-up: key to PC3 antiproliferative activity pIC50: pIC50 = negative log of IC50 (conc. reducing growth to 50% of control); details: 4-day incubation; for IC50: Homo sapiens, 96 h, read-out: PC3 antiproliferative activity pIC50 (converted)
Experimental: Human prostate cancer PC-3 cells obtained from the ATCC were cultured in HAM'S F12 medium supplemented with 1 mM Sodium Pyruvate, 1.5 g/L Sodium Bicarbonate, 50 μg/ml gentamicin, non-essential amino acids and 10% fetal calf serum.
(§1) Resazurin was purchased from Aldrich (Prod. No. 199303). Potassium ferrocyanide, potassium ferricyanide, KH2PO4 and K2HPO4 were purchased from Sigma (Prod. Nos. P9387, P8131, P5655 and P8281, respectively).
(§2) Potassium Phosphate Buffer 0.1 M (PPB) was made as follows: 2.72 gram KH2PO4 and 13.86 gram K2HPO4 were dissolved in 500 ml milli-Q H2O, the pH was adjusted to pH 7.4 and the volume was brought to 1 liter with milli-Q H2O; the buffer was filter sterilised and stored at room temperature. Resazurin stock solution (PPB-A) was prepared fresh by dissolving 45 mg resazurin in 15 ml PBS. 30 mM potassium ferricyanide (PPB-B) was prepared by dissolving 0.987 gram potassium ferricyanide in 100 ml PPB. 30 mM potassium ferrocyanide (PPB-C) was prepared by dissolving 1.266 gram potassium ferrocyanide in 100 ml PPB.
(§3) Mixture of PPB-A, PPB-B and PPB-C was prepared by mixing equal volumes of the respective solutions. Resazurin work solution (herein termed “Alamar Blue” solution) was prepared by diluting said mixture 20× (vol/vol) in PPB and filter sterilising; the Alamar Blue solution could be kept at 4° C. for a maximum of 2 weeks.
(§4) For experiments in 384 wells plates the cells were seeded at a density of 4.5×10^3 cells/ml in Falcon 384-well culture plates (Life Technologies, Merelbeke, Belgium), black with clear bottom, in 45 μl culture medium. Cells were allowed to adhere to plastic for 24 hours. The tested compound was pre-diluted (1/50 in culture medium) and 5 μl pre-diluted compound was added to the wells. Following 4-day incubation, 10 μl of the Alamar Blue solution was added to each well and the cells were further incubated for 4 hours (HCT116) or 24 hours (PC-3) at 37° C. The fluorescence intensity was measured for each well on a Fluorescence plate reader (Fluoroskan, Labsystems, 540 nm excitation and 590 nm emission)
(§5) The antiproliferative activity was calculated as percentage of remaining viable cells in treated versus control (untreated cells) conditions. Within an experiment, the result for each experimental condition is the mean of 3 replicate wells. When appropriate, the experiments were repeated to establish full concentration-response curves. When appropriate, IC50-values (concentration of the drug, needed to reduce cell growth to 50% of the control) were computed using probit analysis for graded data (Finney, D. J., Probit Analyses, 2nd Ed. Chapter 10, Graded Responses, Cambridge University Press, Cambridge 1962). Herein the effects of test compounds are expressed as pIC50 (the negative log value of the IC50-value) (see Table 3).

[3] = system: Human colon carcinoma HCT116 cells; assay: Anti-proliferative effect, Alamar Blue assay, HCT116; assay type: cell-based; details: 4-day incubation; for IC50: Homo sapiens, HCT-116, 96 h, read-out: HCT116 antiproliferative activity pIC50 (converted)
Experimental: Human colon carcinoma HCT116 cells obtained from the ATCC were cultured in McCoy's 5A medium supplemented with 2 mM L-Glutamine, 50 μg/ml gentamicin and 10% heat inactivated fetal calf serum.
as §1, §2, §3, §4, §5

Row | SMILES | IC50 [2] [µM] | IC50 [3] [µM] | PC3 antiproliferative activity pIC50 [2] | HCT116 antiproliferative activity pIC50 [3] | melting point [°C] | tubulin polymerization score (α-β-Tubulin) | Eb1 pLAC [1]
1 | CCN1Cc2ccc(C(C)(C#N)Cc3cccc(C#CCO)c3)cc2NC1=O (stereo not drawn) [Compound 11] | 0.398 | 0.316 | – | – | – | 3 (a compound showing more than 50% inhibition at 5 μM is reported as score 3) | 7
2 | CCN1Cc2ccc(C(C)(C#N)CCOc3ccc(C#N)cc3)cc2NC1=O (stereo not drawn) [Compound 15] | 0.2 | 0.1 | – | – | – | – | –
3 | CCN1Cc2ccc([C@](C)(C#N)Cc3ccccc3)cc2NC1=O [Compound 4] | 0.501 | 0.2 | – | – | 124 | 3 (a compound showing more than 50% inhibition at 5 μM is reported as score 3) | –
4 | CN1Cc2ccc([C@@](C)(C#N)Cc3cccc(C#N)c3)cc2NC1=O [Compound 27] | – | – | 6.8 | 7.1 | – | 3 (a compound showing more than 50% inhibition at 5 μM is reported as score 3) | 6.5
5 | CCN1Cc2ccc([C@](C)(C#N)[C@@H]3CCc4c(Cl)ccnc43)cc2NC1=O [Compound 13] | 0.1 | 0.0794 | – | – | 226 | – | –
6 | CN1Cc2ccc(C(C)(C#N)Cc3cccc(C#N)c3)cc2NC1=O (stereo not drawn) [Compound 28] | – | – | 6.5 | 6.8 | – | 3 (a compound showing more than 50% inhibition at 5 μM is reported as score 3) | 6.5
7 | CCN1Cc2ccc([C@@](C)(C#N)[C@@H]3CCc4c(Cl)ccnc43)cc2NC1=O [Compound 14] | 1.26 | 0.501 | – | – | – | – | –
8 | CCN1Cc2cc(F)c(C(C)(C#N)Cc3cccc(C#N)c3)cc2NC1=O (stereo not drawn) [Compound 26] | – | – | 6.3 | 6.6 | – | 3 (a compound showing more than 50% inhibition at 5 μM is reported as score 3) | 6.5
9 | CCN1Cc2ccc(C(C#N)(CC)Cc3cccc(C#N)c3)cc2NC1=O (stereo not drawn) [Compound 2] | 0.316 | 0.316 | – | – | – | 3 (a compound showing more than 50% inhibition at 5 μM is reported as score 3) | 7
10 | CCN1Cc2ccc(C(C)(C#N)Cc3ccccc3)cc2NC1=O (stereo not drawn) [Compound 16] | – | – | 5.9 | 6.2 | – | 2 | 6
11 | CCN1Cc2ccc(C(C)(C#N)CNCc3ccc(C#N)cc3)cc2NC1=O (stereo not drawn) [Compound 12] | 1.26 | 0.631 | – | – | – | – | –

Continued, in another order:

Row | IC50 [2] [µM] | IC50 [3] [µM] | PC3 antiproliferative activity pIC50 [2] | HCT116 antiproliferative activity pIC50 [3] | melting point [°C] | SMILES | tubulin polymerization score (α-β-Tubulin) | Eb1 pLAC [1]
12 | – | – | 6.3 | 6.4 | – | CCN1Cc2ccc(C(C)(C#N)Cc3nc4ccccc4s3)cc2NC1=O (stereo not drawn) [Compound 23] | – | –
13 | – | – | 6.6 | 6.8 | – | CCN1Cc2ccc(C(C)(C#N)Cc3cccc(C#N)c3)cc2NC1=O (stereo not drawn) [Compound 17] | 3 (a compound showing more than 50% inhibition at 5 μM is reported as score 3) | –
14 | – | – | 6.2 | 6.4 | – | CCN1Cc2ccc(C(C)(C#N)Cc3cc(Cl)cc(Cl)c3)cc2NC1=O (stereo not drawn) [Compound 20] | – | 6.5
15 | – | – | 6.3 | 6.3 | – | CCN1Cc2cc(F)c(C(C)(C#N)Cc3nc(OC)cc(OC)n3)cc2NC1=O (stereo not drawn) [Compound 25] | 3 (a compound showing more than 50% inhibition at 5 μM is reported as score 3) | 6.5
16 | – | – | 6.6 | 6.6 | – | CCN1Cc2ccc(C(C)(C#N)Cc3nc(OC)cc(OC)n3)cc2NC1=O (stereo not drawn) [Compound 18] | 3 (a compound showing more than 50% inhibition at 5 μM is reported as score 3) | –
17 | – | – | 6.6 | 6.7 | – | CCN1Cc2ccc(C(C)(C#N)Cc3cccc(C#CCOC)c3)cc2NC1=O (stereo not drawn) [Compound 36] | 3 (a compound showing more than 50% inhibition at 5 μM is reported as score 3) | 7
18 | – | – | 6.4 | 6.7 | – | CCN1Cc2ccc(C(C)(C#N)Cc3cccc(C)c3)cc2NC1=O (stereo not drawn) [Compound 22] | – | –
19 | – | – | 6.2 | 6.4 | – | CCN1Cc2ccc(C(C)(C#N)Cc3cc(OC)cc(OC)c3)cc2NC1=O (stereo not drawn) [Compound 19] | 3 (a compound showing more than 50% inhibition at 5 μM is reported as score 3) | 6.5
20 | – | – | 6.0 | 6.4 | – | CCN1Cc2ccc(C(C#N)(CC)Cc3nc(OC)cc(OC)n3)cc2NC1=O (stereo not drawn) [Compound 30] | 3 (a compound showing more than 50% inhibition at 5 μM is reported as score 3) | 6.5
21 | – | – | 6.1 | 6.3 | – | CCN1Cc2ccc(C(C)(C#N)Cc3cccc(C#N)n3)cc2NC1=O (stereo not drawn) [Compound 21] | 2 | 5.5
22 | – | – | 6.6 | 6.8 | – | CCN1Cc2ccc(C(C)(C#N)Cc3cccc(F)c3)cc2NC1=O (stereo not drawn) [Compound 24] | – | –

Reference: patent US8168644B2, “Quinazolinone derivatives as tubulin polymerization inhibitors” (Janssen Pharmaceutica NV, priority 2008, dated 2012)
